For 28 molecules, melting point results are on record in patent US6982348B2, “Aminoethanol derivatives” (Takeda Pharmaceutical Company Limited, priority 2001, dated 2006).

As usually defined, the melting point is the temperature, or range, at which the solid turns liquid. Molecule `O=C(N[C@H](Cc1cccc(OC(F)(F)C(F)F)c1)[C@@H](O)c1ccc(CN2CCCCC2)cc1)c1cccc2c1C=CCCC2` (racemic) [Example 327, N-[(1RS,2SR)-2-hydroxy-2-[4-(piperidinomethyl)phenyl]-1-[3-(1,1,2,2-tetrafluoroethoxy)benzyl]ethyl]-6,7-dihydro-5H-benzo[a]cycloheptene-1-carboxamide] gave a melting point of 104 to 106 °C.
Molecule `O=C(N[C@H](Cc1ccc(C(F)(F)F)cc1)[C@@H](O)c1cccc2ccccc12)C1CCCCC1` (racemic) [Example 190, N-((1RS,2SR)-2-hydroxy-2-(1-naphthalenyl)-1-((4-(trifluoromethyl)phenyl)methyl)ethyl)cyclohexanecarboxamide] returned a melting point of 156 to 157 °C.
The molecule `O=C(CCc1ccccc1)N[C@H](Cc1ccc(C(F)(F)F)c(F)c1)[C@@H](O)c1ccc(F)cc1` (racemic) [Example 157, N-((1RS,2SR)-2-(4-fluorophenyl)-1-((3-fluoro-4-(trifluoromethyl)phenyl)methyl)-2-hydroxyethyl)-3-phenylpropanamide] gave a melting point of 126 to 127 °C.
The molecule `O=C(N[C@H](Cc1cccc(CC(F)(F)C(F)F)c1)[C@@H](O)c1ccc(F)cc1)c1cccc2c1C=CCCC2` (racemic) [Example 338, N-[(1RS,2SR)-2-(4-fluorophenyl)-2-hydroxy-1-[3-(2,2,3,3-tetrafluoropropyl)benzyl]ethyl]-6,7-dihydro-5H-benzo[a]cycloheptene-1-carboxamide] returned a melting point of 165 to 166 °C.
For `CC(C)(C)OC(=O)N[C@H](Cc1cccc(CC(F)(F)C(F)F)c1)[C@@H](O)c1ccc(F)cc1` (racemic) [Example 337, tert-butyl N-[(1RS,2SR)-2-(4-fluorophenyl)-2-hydroxy-1-[3-(2,2,3,3-tetrafluoropropyl)benzyl]ethyl]carbamate], the melting point was 168 to 169 °C.
On to `O=C(N[C@H](Cc1cccc(OC(F)(F)C(F)F)c1)[C@@H](O)c1cccc(OCc2ccccc2)c1)c1cccc2c1C=CCCC2` (racemic) [Example 240, N-{(1RS,2SR)-2-[3-(benzyloxy)phenyl]-2-hydroxy-1-[3-(1,1,2,2-tetrafluoroethoxy)benzyl]ethyl}-6,7-dihydro-5H-benzo[a][7]annulene-1-carboxamide], for which the melting point fell in the range of 128 to 129 °C.
`O=C(N[C@H](Cc1cccc(OC(F)(F)C(F)F)c1)[C@@H](O)c1ccc(OCc2ccccc2)cc1)c1cccc2c1C=CCCC2` (racemic) [Example 236, N-{(1RS,2SR)-2-[4-(benzyloxy)phenyl]-2-hydroxy-1-[3-(1,1,2,2-tetrafluoroethoxy)benzyl]ethyl}-6,7-dihydro-5H-benzo[a][7]annulene-1-carboxamide] gave a melting point of 115 to 116 °C.
With `O=C(N[C@H](Cc1cccc(SC(F)(F)F)c1)[C@@H](O)c1ccc(F)cc1)c1ccc(F)c2ccccc12` (racemic) [Example 269, 4-fluoro-N-((1RS,2SR)-2-(4-fluorophenyl)-2-hydroxy-1-{3-[(trifluoromethyl)thio]benzyl}ethyl)-1-naphthamide], the melting point was in the range of 192 to 193 °C.
Consider `CC1(C)COc2ccc(C[C@@H](NC(=O)c3cccc4c(Cl)cccc34)[C@@H](O)c3cccc(Cl)c3)cc21` (racemic) [Example 378, 5-chloro-N-{(1RS,2SR)-2-(3-chlorophenyl)-1-[(3,3-dimethyl-2,3-dihydro-1-benzofuran-5-yl)methyl]-2-hydroxyethyl}-1-naphthamide], for which the melting point was 191 to 192 °C.
`CC(C)c1ccc(C[C@@H](NC(=O)c2ccc(F)c3ccccc23)[C@@H](O)c2ccc(F)cc2)cc1` (racemic) [Example 154, 4-fluoro-N-[(1RS,2SR)-2-(4-fluorophenyl)-2-hydroxy-1-(4-isopropylbenzyl)ethyl]naphthalene-1-carboxamide] returned a melting point of 189 to 192 °C.
Molecule `CC(C)(C)Oc1ccc(C[C@@H](NC(=O)c2cccc3c(Cl)cccc23)[C@@H](O)c2cccc(Cl)c2)cc1` (racemic) [Example 278, N-[(1RS,2SR)-1-(4-tert-butoxybenzyl)-2-(3-chlorophenyl)-2-hydroxyethyl]-5-chloro-1-naphthamide] returned a melting point of 132 to 133 °C.
`CCCCc1ccc(C(=O)N[C@H](Cc2ccc(C(F)(F)F)cc2)[C@@H](O)c2ccc(F)cc2)cc1` (racemic) [Example 79, 4-butyl-N-((1RS,2SR)-2-(4-fluorophenyl)-2-hydroxy-1-((4-(trifluoromethyl)phenyl)methyl)ethyl)benzamide]: the melting point lay in the range of 171 to 172 °C.
The same measure for `O=C(N[C@H](Cc1ccc(C(F)(F)F)c(F)c1)[C@@H](O)c1ccc(F)cc1)c1ccc(F)c2ccccc12` (racemic) [Example 156, N-((1RS,2SR)-2-(4-fluorophenyl)-1-((3-fluoro-4-(trifluoromethyl)phenyl)methyl)-2-hydroxyethyl)-4-fluoro-1-naphthalenecarboxamide]: 212 to 213 °C; for `CC(C)(C)OC(=O)N[C@H](Cc1ccc(C(F)(F)F)cc1)[C@H](O)c1ccc(F)cc1` (racemic) [Example 24, 1,1-dimethylethyl(1RS,2RS)-2-(4-fluorophenyl)-2-hydroxy-1-((4-(trifluoromethyl)phenyl)methyl)ethylcarbamate]: 95 to 96 °C.
The same measure for `COc1ccc([C@H](O)[C@@H](Cc2ccc(C(F)(F)F)cc2)NC(=O)CCc2ccccc2)cc1` (racemic) [Example 193, N-((1RS,2SR)-2-hydroxy-2-(4-methoxyphenyl)-1-((4-(trifluoromethyl)phenyl)methyl)ethyl)-3-phenylpropanamide]: 116 to 117 °C; for `CC(C)(C)COc1cccc(C[C@@H](NC(=O)c2cccc3c(Cl)cccc23)[C@@H](O)c2cccc(Cl)c2)c1` (racemic) [Example 367, N-[(1RS,2SR)-1-[3-(neopentyloxy)benzyl]-2-(3-chlorophenyl)-2-hydroxyethyl]-5-chloro-1-naphthamide]: 142 to 143 °C; for `O=C(NC(Cc1ccc(C(F)(F)F)cc1)C(O)c1ccc(F)cc1)c1ccc(Cl)cc1` (racemic) [Example 9, 4-chloro-N-[2-(4-fluorophenyl)-2-hydroxy-1-[[4-(trifluoromethyl)phenyl]methyl]ethyl]benzamide]: 170 to 180 °C.
For the molecule `O=C(N[C@H](Cc1ccc(C(F)(F)F)cc1)[C@@H](O)c1ccoc1)c1ccc(F)c2ccccc12` (racemic) [Example 195, 4-fluoro-N-((1RS,2SR)-2-(3-furanyl)-2-hydroxy-1-((4-(trifluoromethyl)phenyl)methyl)ethyl)-1-naphthalenecarboxamide], the melting point lay within 206 to 207 °C.
As for `CCCCNC(=O)c1ccc([C@H](O)[C@@H](Cc2cccc(OC(F)(F)C(F)F)c2)NC(=O)c2cccc3c2C=CCCC3)cc1` (racemic) [Example 317, N-[(1RS,2SR)-2-[4-[(butylamino)carbonyl]phenyl]-2-hydroxy-1-[3-(1,1,2,2-tetrafluoroethoxy)benzyl]ethyl]-6,7-dihydro-5H-benzo[a]cycloheptene-1-carboxamide], the figure is 207 to 208 °C; as for `O=C(CCCc1cccs1)NC(Cc1ccc(C(F)(F)F)cc1)C(O)c1ccc(F)cc1` (racemic) [Example 4, N-(2-(4-fluorophenyl)-2-hydroxy-1-((4-(trifluoromethyl)phenyl)methyl)ethyl)-4-(2-thienyl)butyramide], 123 to 124 °C.
Molecule `O=C(N[C@H](Cc1ccc(C(F)(F)F)cc1)[C@@H](O)c1ccc(F)cc1)c1ccnc2ccccc12` (racemic) [Example 57, N-((1RS,2SR)-2-(4-fluorophenyl)-2-hydroxy-1-((4-(trifluoromethyl)phenyl)methyl)ethyl)-4-quinolinecarboxamide] showed a melting point of 227 to 228 °C.
The molecule `O=C(N[C@H](Cc1cccc(OC(F)(F)C(F)F)c1)[C@@H](O)c1ccc(Cl)s1)c1cccc2c1C=CCCC2` (racemic) [Example 289, N-[(1RS,2RS)-2-(5-chloro-2-thienyl)-2-hydroxy-1-[3-(1,1,2,2-tetrafluoroethoxy)benzyl]ethyl]-6,7-dihydro-5H-benzo[a]cycloheptene-1-carboxamide] returned a melting point of 177 to 178 °C.
As for `CC(C)(C)c1cccc(C[C@@H](NC(=O)c2ccc(F)c3ccccc23)[C@@H](O)c2cccc(Cl)c2)c1` (racemic) [Example 369, N-[(1RS,2SR)-1-[3-(tert-butyl)benzyl]-2-(3-chlorophenyl)-2-hydroxyethyl]-4-fluoro-1-naphthamide], the figure is 76 to 78 °C; as for `O=C(CC1CCCC1)N[C@H](Cc1ccc(C(F)(F)F)cc1)[C@@H](O)c1ccc(F)cc1` (racemic) [Example 44, 2-cyclopentyl-N-[(1RS,2SR)-2-(4-fluorophenyl)-2-hydroxy-1-[4-(trifluoromethyl)benzyl]ethyl]acetamide], 195 to 196 °C; as for `CCOC(=O)N[C@H](Cc1ccc(C(F)(F)F)cc1)[C@@H](O)c1ccc(F)cc1` (racemic) [Example 115, ethyl N-[(1RS,2SR)-2-(4-fluorophenyl)-2-hydroxy-1-[4-(trifluoromethyl)benzyl]ethyl]carbamate], 143 to 144 °C.
With `CC(C)(C)OC(=O)N[C@H](Cc1cccc(OC(F)(F)C(F)F)c1)[C@@H](O)c1ccc(Oc2ccccc2)cn1` (racemic) [Example 254, tert-butyl (1RS,2RS)-2-hydroxy-2-(5-phenoxypyridin-2-yl)-1-[3-(1,1,2,2-tetrafluoroethoxy)benzyl]ethylcarbamate], the melting point is 129 to 130 °C.
Regarding `O=C(N[C@H](Cc1ccc(C(F)(F)F)cc1)[C@H](O)c1ccc(F)cc1)c1ccc(C(F)(F)F)cc1` (racemic) [Example 27, N-((1RS,2RS)-2-(4-fluorophenyl)-2-hydroxy-1-((4-(trifluoromethyl)phenyl)methyl)ethyl)-4-(trifluoromethyl)benzamide], the melting point lay within 162 to 163 °C.
`N#Cc1ccc(C(=O)N[C@H](Cc2ccc(C(F)(F)F)cc2)[C@@H](O)c2ccc(F)cc2)c2ccccc12` (racemic) [Example 54, 4-cyano-N-[(1RS,2SR)-2-(4-fluorophenyl)-2-hydroxy-1-[4-(trifluoromethyl)benzyl]ethyl]naphthalene-1-carboxamide] had a melting point of 199 to 201 °C.
